According to ChEMBL document CHEMBL3734750, “A click chemistry approach for the synthesis of mono and bis aryloxy linked coumarinyl triazoles as anti-tubercular agents” (2015):
≈ marks a conversion by molar mass, not a printed value.

Columns and labels:
[1] = system: Mycobacterium tuberculosis; experiment: Antitubercular activity against Mycobacterium tuberculosis H37Rv after 5 days by microplate Alamar blue assay; assay type: functional; conditions: for MIC: Mycobacterium tuberculosis, H37Rv, 120 h
[2] = system: Mycobacterium tuberculosis; experiment: Antitubercular activity against Mycobacterium tuberculosis after 5 days by microplate Alamar blue assay; assay type: functional; conditions: 120 h

SMILES	-logMIC [1]	MIC [1] [µg/mL]	MIC [2] [µg/mL]
Cc1ccc2c(Cn3cc(COc4ccc(OCc5cn(Cc6cc(=O)oc7cc(C)ccc67)nn5)cc4)nn3)cc(=O)oc2c1	5.2	6.25 (≈ 10.1 µM)	
O=c1cc(Cn2cc(COc3ccc(OCc4cn(Cc5cc(=O)oc6c5ccc5ccccc56)nn4)cc3)nn2)c2ccc3ccccc3c2o1	4.93	12.5 (≈ 18.2 µM)	
O=c1cc(Cn2cc(COc3ccc(Cl)cc3)nn2)c2ccc(Cl)cc2o1	4.3	50 (≈ 124 µM)	
Cc1ccc2c(Cn3cc(COc4ccc(OCc5cn(Cc6cc(=O)oc7c(C)c(C)ccc67)nn5)cc4)nn3)cc(=O)oc2c1C	5.5	3.12 (≈ 4.85 µM)	
COc1ccc(OCc2cn(Cc3cc(=O)oc4cc(C)cc(C)c34)nn2)cc1	4.3	50 (≈ 128 µM)	
CN[C@@H]1[C@H](O[C@H]2[C@H](O[C@H]3[C@H](O)[C@@H](O)[C@H](N=C(N)N)[C@@H](O)[C@@H]3N=C(N)N)O[C@@H](C)[C@]2(O)C=O)O[C@@H](CO)[C@H](O)[C@H]1O [STREPTOMYCIN]		6.25 (≈ 10.7 µM)	
COc1ccc(OCc2cn(Cc3cc(=O)oc4c3ccc3ccccc34)nn2)cc1	4.3	50 (≈ 121 µM)	
O=c1cc(Cn2cc(COc3ccc(Cl)cc3)nn2)c2c(ccc3ccccc32)o1	4.3	50 (≈ 120 µM)	
Cc1ccc2oc(=O)cc(Cn3cc(COc4ccc(Br)cc4)nn3)c2c1	4.3	50 (≈ 117 µM)	
COc1ccc(OCc2cn(Cc3cc(=O)oc4cc(OC)ccc34)nn2)cc1	4.3	50 (≈ 127 µM)	
O=c1cc(Cn2cc(COc3ccc(Br)cc3)nn2)c2ccc3ccccc3c2o1	4	100 (≈ 216 µM)	
COc1ccc(OCc2cn(Cc3cc(=O)oc4cc(Cl)ccc34)nn2)cc1	4.3	50 (≈ 126 µM)	
COc1ccc2oc(=O)cc(Cn3cc(COc4ccc(Br)cc4)nn3)c2c1	4.3	50 (≈ 113 µM)	
Cc1ccc2oc(=O)cc(Cn3cc(COc4ccc(Cl)cc4)nn3)c2c1	4.3	50 (≈ 131 µM)	
Cc1ccc2c(Cn3cc(COc4ccc(Br)cc4)nn3)cc(=O)oc2c1	4.3	50 (≈ 117 µM)	
COc1ccc(OCc2cn(Cc3cc(=O)oc4ccc(C)cc34)nn2)cc1	4.3	50 (≈ 132 µM)	

SMILES	-logMIC [1]	MIC [1] [µg/mL]	MIC [2] [µg/mL]
COc1ccc(OCc2cn(Cc3cc(=O)oc4cc(C)ccc34)nn2)cc1	4.3	50 (≈ 132 µM)	
Cc1ccc2c(Cn3cc(COc4ccc(Cl)cc4)nn3)cc(=O)oc2c1	4.3	50 (≈ 131 µM)	
COc1ccc(OCc2cn(Cc3cc(=O)oc4ccc(OC)cc34)nn2)cc1	4.3	50 (≈ 127 µM)	
Cc1ccc2oc(=O)cc(Cn3cc(COc4ccc(OCc5cn(Cc6cc(=O)oc7ccc(C)cc67)nn5)cc4)nn3)c2c1	6.69	0.2 (≈ 0.324 µM)	
O=c1cc(Cn2cc(COc3ccc(Br)cc3)nn2)c2ccc(Cl)cc2o1	4.3	50 (≈ 112 µM)	
COc1ccc2c(Cn3cc(COc4ccc(OCc5cn(Cc6cc(=O)oc7cc(OC)ccc67)nn5)cc4)nn3)cc(=O)oc2c1	5.2	6.25 (≈ 9.64 µM)	
Cc1cc(C)c2c(Cn3cc(COc4ccc(OCc5cn(Cc6cc(=O)oc7cc(C)cc(C)c67)nn5)cc4)nn3)cc(=O)oc2c1	5.2	6.25 (≈ 9.69 µM)	
COc1ccc(OCc2cn(Cc3cc(=O)oc4ccc(Br)cc34)nn2)cc1	4.3	50 (≈ 113 µM)	
O=C(O)c1cn(C2CC2)c2cc(N3CCNCC3)c(F)cc2c1=O [CIPROFLOXACIN]		3.12 (≈ 9.43 µM)	
O=c1cc(Cn2cc(COc3ccc(Cl)cc3)nn2)c2cc(Br)ccc2o1	4.3	50 (≈ 112 µM)	
O=c1cc(Cn2cc(COc3ccc(Br)cc3)nn2)c2cc(Br)ccc2o1	4.3	50 (≈ 102 µM)	
NC(=O)c1cnccn1 [PYRAZINAMIDE]		3.12 (≈ 25.4 µM)	
COc1ccc(OCc2cn(Cc3cc(=O)oc4ccc5ccccc5c34)nn2)cc1	4.3	50 (≈ 121 µM)	
O=c1cc(Cn2cc(COc3ccc(Br)cc3)nn2)c2c(ccc3ccccc32)o1	4	50 (≈ 108 µM)	
Cc1cc(=O)oc2cc(OCc3cn(Cc4cc(=O)oc5ccc(Cl)cc45)nn3)ccc12			6.25 (≈ 13.9 µM)
